Source: patent publication US20060188501A1, “Diagnostic and therapeutic agents for rheumatoid arthritis” (Kyowa Hakko Kogyo Co., Ltd., priority 2000, published 2006)

System: Synoviocytes derived from a rheumatoid arthritis patient
Assay: Growth of synoviocytes measured by MTT assay
Assay type: cell-based, human
Conditions: genistein 1.5, 3, 6, 12.5 and 25 μg/ml, 7 days culture, FIG. 2
Experimental: That is, synoviocytes obtained from a rheumatoid arthritis patient by surgery were minced, followed by enzyme treatment in RPMI1640 medium containing collagenase (4 mg/ml) at 37° C. for 4 hours to loosen the cells. The obtained cells were cultured in a growth medium (RPMI1640 containing 10% fetal calf serum) in a humidified CO2 incubator (5% CO2), with replacement of the growth medium at intervals of 3 to 4 days. When the cells grew to be subconfluent, the cells were subcultured at the ratio of 1:2 to 1:4 (that is, the cells were collected, transferred into other culture flasks in 1/2 to 1/4 portions and cultured in a fresh growth medium). Subculturing was repeated for 7 to 15 passages and the resulting cells were used in the following experiments.
The growth of synoviocytes was measured by the assay using MTT [3,(4,5-dimethylthiazol-2-yl)2,5-diphenyl-tetrazolium bromide]
Synoviocytes derived from a rheumatoid arthritis patient which were prepared in the same manner as in Example 1 were seeded on a 96-well microplate in an amount of 5×10^3 cells/well and precultured in the growth medium at 37° C. overnight. […] Then, 100 μl of dimethyl sulfoxide was added to dissolve the fomazan complex and the absorbance at the wavelength of 590 nm was measured with 96-well multiscanner Immno-Mini (Japan Inter Med) as the degree of cell growth. […]

**Q.** With O=c1c(-c2ccc(O)cc2)coc2cc(O)cc(O)c12 [genistein] as the molecule, how does the “growth of synoviocytes (absorbance at 590 nm, MTT)” value read?
**A.** inhibited in a manner dependent on the genistein concentration
